Values of other authors in patent US20060233841A1, “Implantable gel compositions and method of manufacture” (priority 1999, published 2006).

Details: reported value; solubility values considered to be determined at 20° C.

solubility in water: 7.17 grams in 100 ml of water
Compound: CC(=O)OCC(COC(C)=O)OC(C)=O [triacetin]
